From patent US8053627B2, “Methods for treating demyelination disorders” (University of Chicago, priority 2005, dated 2011)

Test system: myelinating oligodendrocytes in the CNS
Assay: Ectopic CNS expression of IFN-γ during development (released from doxycycline at E14), wild-type or PERK+/− background
Format: in vivo, mice
Source text: To study the effect of INF-γ on the myelination of oligodendrocytes during mouse development, transgenic mice that allow for temporally regulated delivery of IFN-γ to the CNS using the tetracycline (tet) controllable system (Lin, et al. (2004) J. Neurosci. 24: 10074-10083) were generated. To drive tTA expression in astrocytes, the transcriptional regulatory region of the glial fibrillary acidic protein (GFAP) gene was chosen (Brenner, et al. (1994) J. Neurosci. 14: 1030-1037). GFAP/tTA mice were mated with TRE/IFN-γ mice to produce animals hemizygous for both transgenes. When these mice are maintained on doxycycline (DOX+), expression of the IFN-γ transgene is repressed (FIG. 10A); when the double transgenic mice are released from doxycycline (DOX−) INF-γ is expressed. For the purpose of these experiments, mice received doxycycline up to day 14 of development (E14), at which time the experimental animals (DOX−) stopped receiving doxycycline, while the control animals (DOX+) were continuously fed the dug. The mRNA for IFN-γ could be detected in the DOX− mice as early as 10 days after birth (data not shown).
Real time PCR analysis was performed to determine the levels of expression of INF-γ, MHC-1, BIP, CHOP, and caspase 12. The primers for the PCR reactions for BIP, CHP and caspase 12 are given in example 1. The sense and antisense primers for INF-γ were […] (SEQ ID NO: 39) and […] (SEQ ID NO: 40), respectively; and the sense and antisense primers for MHC-1 were MHC-I sense primer: ATTCCCCAAAGGCCCATGT (SEQ ID NO: 1); and MHC-I antisense primer: […] (SEQ ID NO: 2).
Western blot analysis was performed on the CNS of 14 day old mice to determine the expression of caspase-12 as described in Example 6.
Brain and spinal cord tissue were analyzed using immunohistochemical methods as follows. Anesthetized mice were perfused through the left cardiac ventricle with 4% paraformaldehyde in 0.1M PBS. The half-saggital brains and transcervical spinal cord were removed, postfixed with paraformaldehyde, cryopreserved in 30% sucrose, embedded in OCT and frozen on dry ice. Frozen sections were cut in a cryostat at a thickness of 10 μm. Coronal sections at the fornix region of the corpus callosum corresponding to Sidman sections 241-251 were selected for use, and all comparative analyses were restricted to midline corpus callosum (Sidman, et al. (1971) Atlas of the Mouse Brain and Spinal Cord (Harvard Univ. Press, Cambridge, Mass.). For immunohistochemistry, frozen sections were treated with −20° C. acetone, blocked with PBS containing 10% NGS and 0.1% Triton X-100 and incubated overnight with the primary antibody diluted in blocking solution. Appropriate fluorochrome- or enzyme-labeled secondary antibodies (Vector Laboratories, Burlingame, Calif.) were used for detection. An antibody against CC1 (APC7, 1:50; EMD Biosciences, Inc., La Jolla, Calif.) was used as a marker for mature oligodendrocytes. Antibody against MBP (1:1000; Sternberger Monoclonals, Lutherville, Mass.) was used to verify the degree of myelination. Antibody against active-caspase-3 (1:50, Cell signaling Technology, Beverly, Mass.) was used as a marker for apoptotic cells. Fluorescent stained sections were mounted with Vectashield mounting medium with DAPI (Vector Laboratories) and visualized with a Zeiss Axioplan fluorescence microscope. Images were captured using a Photometrics PXL CCD camera connected to an Apple Macintosh computer using the Open Lab software suite. Immunopositive cells were quantified by counting positive cells within the median of the corpus callosum, confined to an area of 0.04 mm^2. Only those cells with nuclei observable by DAPI staining were counted. Each MBP immunostaining slide was scored on a scale of zero to four. A score of zero indicates complete demyelination, and a score of four indicates normal myelination in the corpus callosum of adult mice. […]

[1] = PERK+/− background, released from doxycycline at E14
[2] = wild-type background, released from doxycycline at E14

With “IFN-γ: pleotropic cytokine secreted by activated T lymphocytes and natural killer cells; delivered to the CNS by transgene or added as recombinant protein” the “BIP expression relative to control levels” value (CNS, PND 14, DOX− from E14) was “approximately 1.6 times”, the “CHOP expression relative to control levels” value (CNS, PND 14, DOX− from E14) was about 2 times and the caspase-12 expression (CNS, PND 14, DOX− from E14) was “strongly enhanced”. For the same substance, the state of myelination (DOX− double transgenic mice, wild-type background) was “mildly hypomyelinated”, the “decrease of oligodendrocyte numbers in the spinal cord (CC1)” value (PERK+/− background, 14-day-old) was “more than 50%” and the “mice that died by post natal day (PND) 27” value [1] was “more than 90%”. For the same substance, the “mice that experienced tonic seizures” value [1] was “approximately two-thirds”, the “unmyelinated axons in the spinal cord” value (PERK+/− mice expressing IFN-γ, 14-day-old) was 81%±14.9% and the “TUNEL positive oligodendrocytes in the cervical spinal cord, PERK+/− relative to wild-type background” value (released from doxycycline at E 14) was 2.5 times. The survival [2] was “normal survival” and the “unmyelinated axons in the spinal cord” value [2] was 30%±12.9%.
